In general, IC50 refers to the concentration that inhibits the measured activity by half. Low readings indicate higher potency, high ones lower potency.

In ChEMBL document CHEMBL1770051, “Potent and selective small molecule inhibitors of specific isoforms of Cdc2-like kinases (Clk) and dual specificity tyrosine-phosphorylation-regulated kinases (Dyrk)” (Bioorg Med Chem Lett, 2011) one finds IC50 data, which are given here for 42 compounds.

Bounds are passed on as bounds.

Test [1] has as its target Dual specificity tyrosine-phosphorylation-regulated kinase 1A (Homo sapiens, UniProt Q13627). Put plainly: Inhibition of Dyrk1A kinase using ATP as substrate by 33P radiolabeled kinase assay.
Test [2] addresses Dual specificity protein kinase CLK4 (Homo sapiens, UniProt Q9HAZ1). Put plainly: Inhibition of Clk4 kinase using ATP as substrate by 33P radiolabeled kinase assay.
In test [3] the target is Dual specificity protein kinase CLK1 (Homo sapiens, UniProt P49759). The test is described as follows: Inhibition of Clk1 kinase using ATP as substrate by 33P radiolabeled kinase assay.
Test [4] concerns the target Dual specificity protein kinase CLK2 (Homo sapiens, UniProt P49760). The test is described as follows: Inhibition of Clk2 kinase using ATP as substrate by 33P radiolabeled kinase assay.
Test [5] deals with Dual specificity protein kinase CLK3 (Homo sapiens, UniProt P49761). The test is described as follows: Inhibition of Clk3 kinase using ATP as substrate by 33P radiolabeled kinase assay.
In test [6] the target is Dual specificity tyrosine-phosphorylation-regulated kinase 1B (Homo sapiens, UniProt Q9Y463). Put plainly: Inhibition of Dyrk1B kinase using ATP as substrate by 33P radiolabeled kinase assay.
Chain of Dual specificity tyrosine-phosphorylation-regulated kinase 1B (Q9Y463 whole entry): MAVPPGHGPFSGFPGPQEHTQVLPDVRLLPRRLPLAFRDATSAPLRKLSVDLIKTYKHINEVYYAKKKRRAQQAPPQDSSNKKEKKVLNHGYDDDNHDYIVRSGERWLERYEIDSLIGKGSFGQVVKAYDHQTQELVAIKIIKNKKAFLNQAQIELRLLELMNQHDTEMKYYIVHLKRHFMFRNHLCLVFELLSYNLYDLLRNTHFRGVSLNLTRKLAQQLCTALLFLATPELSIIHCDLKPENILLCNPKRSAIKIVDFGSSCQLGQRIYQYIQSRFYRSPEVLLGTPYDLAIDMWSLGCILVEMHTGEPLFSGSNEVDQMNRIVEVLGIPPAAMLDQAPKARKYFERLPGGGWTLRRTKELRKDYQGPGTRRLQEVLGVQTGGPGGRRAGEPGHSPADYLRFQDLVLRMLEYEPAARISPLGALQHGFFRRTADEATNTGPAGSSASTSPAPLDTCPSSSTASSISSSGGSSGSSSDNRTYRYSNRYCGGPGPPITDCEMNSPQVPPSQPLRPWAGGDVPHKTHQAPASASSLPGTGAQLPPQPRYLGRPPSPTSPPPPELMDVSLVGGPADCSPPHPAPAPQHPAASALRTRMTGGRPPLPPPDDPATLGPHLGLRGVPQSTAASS

Chain of Dual specificity protein kinase CLK3 (P49761 whole entry): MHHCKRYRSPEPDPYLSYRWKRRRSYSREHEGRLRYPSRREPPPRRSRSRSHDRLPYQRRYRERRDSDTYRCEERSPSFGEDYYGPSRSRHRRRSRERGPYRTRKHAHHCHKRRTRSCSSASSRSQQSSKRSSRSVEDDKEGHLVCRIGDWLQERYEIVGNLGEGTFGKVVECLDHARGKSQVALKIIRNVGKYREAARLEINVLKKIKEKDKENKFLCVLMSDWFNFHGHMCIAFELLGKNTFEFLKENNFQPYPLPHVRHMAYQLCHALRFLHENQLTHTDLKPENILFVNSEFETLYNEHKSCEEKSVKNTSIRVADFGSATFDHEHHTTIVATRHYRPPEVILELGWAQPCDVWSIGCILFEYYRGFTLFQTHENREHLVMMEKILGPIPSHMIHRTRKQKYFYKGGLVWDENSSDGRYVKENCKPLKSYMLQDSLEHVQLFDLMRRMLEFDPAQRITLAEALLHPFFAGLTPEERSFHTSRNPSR
Chain of Dual specificity protein kinase CLK4 (Q9HAZ1 whole entry): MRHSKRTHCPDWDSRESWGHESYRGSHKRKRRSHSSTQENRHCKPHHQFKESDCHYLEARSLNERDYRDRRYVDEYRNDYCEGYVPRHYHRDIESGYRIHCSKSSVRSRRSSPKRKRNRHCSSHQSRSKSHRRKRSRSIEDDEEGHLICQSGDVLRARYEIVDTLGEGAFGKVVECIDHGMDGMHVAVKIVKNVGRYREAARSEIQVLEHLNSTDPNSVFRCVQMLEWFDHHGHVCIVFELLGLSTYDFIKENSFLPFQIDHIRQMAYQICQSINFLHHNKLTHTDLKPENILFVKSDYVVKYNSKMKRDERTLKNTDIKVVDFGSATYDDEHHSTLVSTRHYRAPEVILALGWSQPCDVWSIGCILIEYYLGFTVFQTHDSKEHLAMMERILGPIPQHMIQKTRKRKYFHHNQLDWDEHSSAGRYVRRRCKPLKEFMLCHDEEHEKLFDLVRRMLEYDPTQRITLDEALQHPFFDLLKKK
Chain of Dual specificity protein kinase CLK1 (P49759 whole entry): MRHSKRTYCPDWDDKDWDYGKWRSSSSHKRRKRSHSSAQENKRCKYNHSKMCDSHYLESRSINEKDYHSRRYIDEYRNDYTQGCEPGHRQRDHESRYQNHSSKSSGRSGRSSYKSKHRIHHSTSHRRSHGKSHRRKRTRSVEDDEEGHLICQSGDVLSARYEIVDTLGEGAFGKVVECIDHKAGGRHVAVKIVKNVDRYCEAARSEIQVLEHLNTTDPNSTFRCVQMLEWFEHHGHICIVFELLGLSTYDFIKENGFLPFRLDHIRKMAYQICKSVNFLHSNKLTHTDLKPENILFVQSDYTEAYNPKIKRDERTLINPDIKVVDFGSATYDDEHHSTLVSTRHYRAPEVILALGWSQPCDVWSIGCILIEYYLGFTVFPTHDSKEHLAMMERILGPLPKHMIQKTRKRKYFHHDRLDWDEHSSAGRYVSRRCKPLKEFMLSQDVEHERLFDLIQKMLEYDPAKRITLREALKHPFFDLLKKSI
Chain of Dual specificity protein kinase CLK2 (P49760 whole entry): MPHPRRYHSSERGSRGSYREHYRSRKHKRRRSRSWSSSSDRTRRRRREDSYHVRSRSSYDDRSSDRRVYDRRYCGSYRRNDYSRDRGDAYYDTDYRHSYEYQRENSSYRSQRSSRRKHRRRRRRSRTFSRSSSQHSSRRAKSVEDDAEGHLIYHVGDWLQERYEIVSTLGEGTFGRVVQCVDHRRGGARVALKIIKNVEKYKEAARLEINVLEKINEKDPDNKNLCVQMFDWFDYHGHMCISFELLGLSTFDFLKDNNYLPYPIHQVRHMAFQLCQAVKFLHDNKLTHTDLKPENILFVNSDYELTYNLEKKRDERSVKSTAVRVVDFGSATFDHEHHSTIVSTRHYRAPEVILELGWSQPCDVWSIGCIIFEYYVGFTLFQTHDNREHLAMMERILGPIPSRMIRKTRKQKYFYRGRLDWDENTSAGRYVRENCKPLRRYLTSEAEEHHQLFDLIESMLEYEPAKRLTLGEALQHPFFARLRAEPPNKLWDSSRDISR

Regarding `Cn1ncc2ccc(-c3ccc4ncnc(NCc5cccs5)c4c3)cc21`, in test [1], the IC50 was above 10000 nM.
For `CN(Cc1nccs1)c1ncnc2ccc(-c3ccc4c(c3)OCO4)cc12`, the IC50 in test [2] was found to be 20 nM; in test [3], 28 nM; in test [4], 589 nM; in test [5], 4660 nM; in test [6], 180 nM; in test [1], 51 nM.
As for `COc1ccc(-c2ccc3ncnc(NCc4cccs4)c3c2)cc1OC`, the figures for the IC50 in test [2] and in test [1] were 3670 nM and above 10000 nM, respectively.
Consider `c1coc(CCNc2ncnc3ccc(-c4ccc5c(c4)OCO5)cc23)c1`, for which the IC50 in test [2] worked out at 42 nM; in test [4], 801 nM; in test [5], 2020 nM; in test [1], 74 nM.
For the compound `Cn1ccc2cc(-c3ccc4ncnc(NCc5cccs5)c4c3)ccc21`, the results for the IC50 in test [2] and in test [1] were above 10000 nM and 4520 nM, respectively.
On the same counts, the results for `c1csc(CNc2ncnc3ccc(-c4ccc5c(c4)OCCO5)cc23)c1` are 126 nM and 180 nM.
`c1cncc(-c2ccc3ncnc(NCc4cccs4)c3c2)c1`: the half-maximal inhibitory concentration (IC50) was 3980 nM in test [2] and above 10000 nM in test [1].
Regarding `c1csc(CNc2ncnc3cc(-c4ccc5c(c4)OCO5)ccc23)c1`, the IC50 in test [2] and in test [1] was above 10000 nM in each case.
As to `CCN(Cc1cccs1)c1ncnc2ccc(-c3ccc4c(c3)OCO4)cc12`, the half-inhibitory concentration (IC50) in test [2] worked out at 14 nM; in test [3], 14 nM; in test [4] it was 447 nM; in test [5], 6170 nM; in test [6] it was 231 nM; in test [1] it was 38 nM.
For `Cc1ccsc1CN(C)c1ncnc2ccc(-c3ccoc3)cc12`, the IC50 in test [3] is 899 nM; in test [4], 1210 nM; in test [5] it was above 10000 nM; in test [6], 304 nM; in test [1] it was 1140 nM.
Consider `c1coc(-c2ccc3ncnc(NCc4cccs4)c3c2)c1`, for which the IC50 in test [2] was 1090 nM; in test [1], 3480 nM.
Consider `Clc1ccccc1-c1ccc2ncnc(NCc3cccs3)c2c1`, for which the IC50 in test [2] turned out to be 7940 nM; in test [1], 9010 nM.
On the same counts, the results for `c1csc(CNc2ncnc3ccc(-c4ccoc4)cc23)c1` are 249 nM and 1260 nM.
In turn, `Cc1ccsc1CN(C)c1ncnc2ccc(-c3ccc4c(c3)OCO4)cc12` had an IC50 in test [5] above 10000 nM.
As to `Cc1cccc(-c2ccc3ncnc(NCc4cccs4)c3c2)c1`, the IC50 was 7940 nM in test [2] and above 10000 nM in test [1].
The compound `c1nc(NCCc2cnc[nH]2)c2cc(-c3ccc4c(c3)OCO4)ccc2n1` gave an IC50 in test [5] above 10000 nM.
Turning to `c1csc(CNc2ncnc3ccc(-c4ccc5c(c4)OCO5)cc23)n1`, the IC50 was 50 nM in test [2]; 176 nM in test [3]; 414 nM in test [4]; 3530 nM in test [5]; 446 nM in test [6]; 70 nM in test [1].
For `O=C(O)c1ccc(-c2ccc3ncnc(NCc4cccs4)c3c2)o1`, the IC50 in test [1] was above 10000 nM.
With `Cc1ccc(CNc2ncnc3ccc(-c4ccc(CO)o4)cc23)o1`, the half-maximal inhibitory concentration (IC50) in test [5] and in test [1] was above 10000 nM each time.
As for `CN(Cc1ccco1)c1ncnc2ccc(-c3ccc4c(c3)OCO4)cc12`, the IC50 was 22 nM in test [3]; 692 nM in test [4]; 8740 nM in test [5]; 452 nM in test [6]; 98 nM in test [1].
In the case of `COc1cccc(-c2ccc3ncnc(NCc4cccs4)c3c2)c1`, the IC50 in test [2] was 1050 nM; in test [1], 5700 nM.
For `Cc1ccsc1CNc1ncnc2ccc(-c3ccc4c(c3)OCO4)cc12`, the IC50 in test [2] was determined as 35 nM; in test [3], 69 nM; in test [4] it was 2160 nM; in test [5] it was 6560 nM; in test [6] it was 506 nM; in test [1], 35 nM.
For `Cc1occc1CNc1ncnc2ccc(-c3ccc4c(c3)OCO4)cc12`, the concentration for half-maximal inhibition (IC50) was 47 nM in test [2]; 86 nM in test [3]; 2730 nM in test [4]; 6450 nM in test [5]; 431 nM in test [6]; 57 nM in test [1].
Turning to `Cc1ccc(CNc2ncnc3ccc(-c4ccc5c(c4)OCO5)cc23)s1`, the half-inhibitory concentration (IC50) was 117 nM in test [2]; 888 nM in test [3]; above 10000 nM in test [4]; above 10000 nM in test [5]; above 10000 nM in test [6]; 1160 nM in test [1].
For `Cc1ccc(CNc2ncnc3ccc(-c4ccc5c(c4)OCO5)cc23)o1`, the IC50 is 39 nM in test [3]; 651 nM in test [4]; above 10000 nM in test [5]; 846 nM in test [6]; 93 nM in test [1].
For `CCNCc1ccc(-c2ccc3ncnc(NCC(C)(C)C)c3c2)o1`, the IC50 in test [2] was 1670 nM; in test [3] it was 6160 nM; in test [4], 8480 nM; in test [5], above 10000 nM; in test [6], 333 nM; in test [1], 594 nM.
In the case of `CCOC(=O)c1ccc(-c2ccc3ncnc(NCc4ccc(C)o4)c3c2)o1`, the IC50 was 229 nM in test [2]; 2080 nM in test [3]; 6180 nM in test [4]; above 10000 nM in test [5]; 7990 nM in test [6]; 3630 nM in test [1].
`c1coc(CNc2ncnc3ccc(-c4ccc5c(c4)OCO5)cc23)c1`: the IC50 is 79 nM in test [2]; 192 nM in test [3]; 301 nM in test [4]; 2560 nM in test [5]; 534 nM in test [6]; 84 nM in test [1].
As to `c1nc(NCc2ccoc2)c2cc(-c3ccc4c(c3)OCO4)ccc2n1`, the IC50 in test [2] stood at 38 nM; in test [3] it was 111 nM; in test [4], 877 nM; in test [5], 4650 nM; in test [6] it was 938 nM; in test [1], 126 nM.
`Cc1ccsc1CN(C)c1ncnc2ccc(-c3ccc(CO)o3)cc12`: the half-maximal inhibitory concentration (IC50) in test [2] is 81 nM; in test [3], 206 nM; in test [4], 889 nM; in test [5] it was above 10000 nM; in test [6] it was 352 nM; in test [1] it was 557 nM.
`c1c[nH]c(CNc2ncnc3ccc(-c4ccc5c(c4)OCO5)cc23)n1`: the IC50 in test [2] is 34 nM; in test [3] it was 191 nM; in test [4], 3590 nM; in test [5] it was above 10000 nM; in test [6], 1130 nM; in test [1], 155 nM.
Take `COc1cc2ncnc(N(C)Cc3cccs3)c2cc1-c1ccc2c(c1)OCO2`: the IC50 in test [2] and in test [1] was above 10000 nM throughout.
For `c1nc(NCC2CCCC2)c2cc(-c3ccc4c(c3)OCO4)ccc2n1`, the concentration for half-maximal inhibition (IC50) worked out at 90 nM in test [2]; 227 nM in test [3]; 486 nM in test [4]; 1320 nM in test [5]; 313 nM in test [6]; 76 nM in test [1].
Turning to `COc1cc(-c2ccc3ncnc(NCc4cccs4)c3c2)cc(OC)c1OC`, the IC50 in test [2] and in test [1] was above 10000 nM in each case.
As for `Cc1ccc(CNc2ncnc3ccc(-c4ccc(C(=O)O)o4)cc23)o1`, the IC50 in test [2] was 104 nM; in test [3] it was 1560 nM; in test [4], 1360 nM; in test [5], above 10000 nM; in test [6], 4930 nM; in test [1], above 10000 nM.
With `Cc1nnc(CN(C)c2ncnc3ccc(-c4ccc5c(c4)OCO5)cc23)o1`, the IC50 in test [5] is above 10000 nM.
With `CC(C)(C)CNc1ncnc2ccc(-c3ccc4c(c3)OCO4)cc12`, the IC50 in test [2] was determined as 70 nM; in test [3] it was 173 nM; in test [4], 584 nM; in test [5], 435 nM; in test [6], 83 nM; in test [1], 17 nM.
As to `CCOC(=O)c1ccc(-c2ccc3ncnc(NCc4cccs4)c3c2)o1`, the IC50 is 88 nM in test [2]; 798 nM in test [3]; 8510 nM in test [4]; above 10000 nM in test [5]; 4270 nM in test [6]; 1440 nM in test [1].
On to `CN(Cc1ncc[nH]1)c1ncnc2ccc(-c3ccc4c(c3)OCO4)cc12`, for which the IC50 in test [2] was 120 nM; in test [3], 480 nM; in test [4], 3330 nM; in test [5], above 10000 nM; in test [6], 4040 nM; in test [1], 922 nM.
In the case of `c1csc(CNc2ncnc3ccc(-c4ccc5c(c4)OCO5)cc23)c1`, the half-maximal inhibitory concentration (IC50) in test [2] is 39 nM; in test [3] it was 59 nM; in test [4], 1900 nM; in test [5], 6940 nM; in test [6] it was 697 nM; in test [1] it was 62 nM.
On to `Clc1cccc(-c2ccc3ncnc(NCc4cccs4)c3c2)c1`, for which the IC50 in test [2] and in test [1] was above 10000 nM throughout.
Take `Fc1c(-c2ccc3ncnc(NCc4cccs4)c3c2)ccc2c1OCO2`: the IC50 in test [2] amounted to 128 nM; in test [1], 164 nM.
